In one assay the test system is HSP90. Nature of the assay: Streptavidin-bead immunoprecipitation of biotin-labeled HSP90 in platelets treated with HAC-B. The class given is cell-based, BALB/c mice. As to the method:
The immunoprecipitation assays based on the streptavidin-biotin system were used to evaluate the engineering efficiency of HAC-B on platelets. The fresh platelets were isolated from the whole blood of BALB/c mice as described above. PBS containing PGE1 ([…]) was adopted to dilute the platelets to a final concentration of 1×10^8 platelets/mL, and a total amount of 2×10^8 platelets (2 mL) was assigned for each sample in one tube. The HAC-B stock solution in DMSO was added to each tube at a final concentration of 2.5, 5, or 10 μM, and then the samples were placed in an orbital shaker with a speed of 50 rpm and incubated for 2 h at room temperature (blank DMSO serve as 0 μM). Meanwhile, other tubes containing the same platelet suspensions were added with HAC-B stock solution at a final concentration of 10 μM, which were shaken at the same conditions for 0.5, 1, 2, 3, or 4 h (the platelet suspension that was centrifugated immediately after HAC-B addition serves as the 0 h group). […] The total proteins in the supernatants were quantified through the BCA assay, and 10 μL of lysate supernatants were saved as the input samples. […]

The subject of another assay is WT MDA-MB-231 cells. Description: Colocalization between internalized NeutrAvidin and lysosome marker LAMP1. The conditions noted are these: HAC-B 5 μM, NA-647 0.5 μM 1 h. The class given is cell-based, human. As to the method:
Colocalization between internalized NeutrAvidin™ and lysosome maker: 5×10^4 WT MDA-MB-231 cells were seeded in a confocal dish and cultured for 24 h at 37° C. Then, the cells were treated with free HAC-B at 5 μM for 2 h. Next, the drug-containing medium was removed, and PBS was used to wash the cells twice, followed by incubating the cells in the blank medium containing NA-647 at 0.5 μM for 1 h. Subsequently, the cells were washed with PBS twice and fixed with 4% PFA at room temperature for 20 min. Subsequently, the cell sample was treated with the permeabilization solution (0.5% Triton™ X-100 in PBS) at room temperature for another 20 min, followed by incubation with the blocking buffer (1% BSA in PBS) at room temperature for 1 h. The cell sample was incubated with the rabbit anti-LAMP1 antibody (Cell Signaling Technology/9091T) overnight at 4° C., followed by the incubation with the Alexa Fluor®488-conjugated anti-rabbit IgG H & L secondary antibodies at room temperature for 2 h. After staining with Hoechst 33342, the cells were subjected to Leica SP8 Confocal WLL STED microscopy for observation.

A further assay relates to HSP90 and BRD4. Nature of the assay: co-Immunoprecipitation of BRD4 with anti-HSP90 antibody in 4T1 cell lysate. The conditions noted are these: 4T1 cells, 10 μM, 2 h. In kind it is cell-based, murine. As to the method:
co-Immunoprecipitation assay: 2×10^6 4T1 cells were seeded in T75 cell culture flasks and cultured for 24 h. Then, the medium in the corresponding flasks was replaced with 15 mL of blank medium with DMSO or iHAC (10 μM). Following incubation for another 2 h, the cells were washed with cold PBS twice and digested with 2 mL of trypsin. As for the iDePMP treatment, 1×10^9 iDePLTs were generated as the above engineering method and suspended in 3 mL of PBS containing thrombin (0.5 U/mL), followed by incubation at 37° C. for 0.5 h. The platelet suspensions were evenly divided and subjected to a sequentially combined centrifugation at 5000 g for 5 min and at 11,000 g for 1 min, followed by further centrifugation at 2500 g for 15 min at room temperature. The combined supernatants were supplemented to 12 mL blank medium to treat 4T1 cells in the relevant flasks. After incubation for 6 h, the cells were washed with cold PBS twice and digested with 2 mL of trypsin. The cell pellets were collected through centrifugation at 1200 rpm for 3 min and washed with cold PBS. The final pellets were directly lysed on ice with RIPA buffer containing PMSF (1 mM) and the phosphatase inhibitor cocktail for 30 min. […] The total proteins in the precleared samples were quantified through the BCA assay, and 20 μL of the precleared solution samples were saved as the input samples. […]

Structures are written as SMILES.

This is an account of results in patent US20250327028A1, “ENGINEERED PLATELETS AS TARGETED PROTEIN DEGRADERS” (Wisconsin Alumni Research Foundation, priority 2024, published 2025).

As to `N#CCN(C(=O)CCCC[C@@H]1SC[C@@H]2NC(=O)N[C@@H]21)S(=O)(=O)c1ccc(C(=O)NCCCn2c(Sc3cc4c(cc3I)OCO4)nc3c(N)ncnc32)cc1` [HAC-B, N-(3-(6-amino-8-((6-iodobenzo[d][1,3]dioxol-5-yl)thio)-9H-purin-9-yl)propyl)-4-(N-(cyanomethyl)-N-(5-((3aS,4S,6aR)-2-oxohexahydro-1H-thieno[3,4-d]imidazol-4-yl)pentanoyl)sulfamoyl)benzamide], the “concentration dependence of HSP90 tethering in platelets” value in the assay with HSP90 (2 h) is recorded as “in a concentration-dependent manner”. Further, the “incubation time at which biotin labeling of HSP90 in platelets approaches a maximum” value in the assay with HSP90 (HAC-B 10 μM) is given as ~2 h. The “distribution of internalized NA-647 relative to lysosome marker LAMP1” value in the assay with WT MDA-MB-231 cells is recorded as “mainly overlapped with the lysosome maker, LAMP1”.

As to `Cc1sc2c(c1C)C(c1ccc(Cl)cc1)=N[C@@H](CC(=O)NCc1cn(CCCC(=O)N(CC#N)S(=O)(=O)c3ccc(C(=O)NCCCn4c(Sc5cc6c(cc5I)OCO6)nc5c(N)ncnc54)cc3)nn1)c1nnc(C)n1-2` [iHAC, (S)—N-(3-(6-amino-8-((6-iodobenzo[d][1,3]dioxol-5-yl)thio)-9H-purin-9-yl)propyl)-4-(N-(4-(4-((2-(4-(4-chlorophenyl)-2,3,9-trimethyl-6H-thieno[3,2-f][1,2,4]triazolo[4,3-a][1,4]diazepin-6-yl)acetamido)methyl)-1H-1,2,3-triazol-1-yl)butanoyl)-N-(cyanomethyl)sulfamoyl)benzamide], the “BRD4 co-precipitated with anti-HSP90 antibody” value in the assay with HSP90 and BRD4 was “could considerably enhance the interaction between BRD4 and HSP90”.
